Data on six compounds can be found in ChEMBL document CHEMBL1136185, “Linearized and truncated microcystin analogues as inhibitors of protein phosphatases 1 and 2A” (Bioorg Med Chem Lett, 2003).

The target of this assay is T1, Serine-threonine protein phosphatase 2A regulatory subunit (Gallus gallus, UniProt Q8AWE3).
T1 sequence (Q8AWE3 whole entry): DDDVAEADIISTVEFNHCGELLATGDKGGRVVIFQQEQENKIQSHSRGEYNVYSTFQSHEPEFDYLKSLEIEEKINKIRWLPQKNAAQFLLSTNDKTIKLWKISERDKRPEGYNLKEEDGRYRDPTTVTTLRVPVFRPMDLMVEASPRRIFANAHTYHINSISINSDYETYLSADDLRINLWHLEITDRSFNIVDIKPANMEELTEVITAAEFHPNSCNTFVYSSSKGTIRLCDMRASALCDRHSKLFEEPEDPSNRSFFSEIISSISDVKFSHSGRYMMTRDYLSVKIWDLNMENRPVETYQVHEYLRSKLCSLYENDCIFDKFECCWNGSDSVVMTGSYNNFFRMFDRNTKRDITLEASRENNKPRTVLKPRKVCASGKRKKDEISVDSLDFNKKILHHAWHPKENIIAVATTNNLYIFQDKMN
Nature of the assay: Inhibitory concentration required against protein phosphatase 2A using pNPP assay.
As usually defined, the IC50 is the concentration at which inhibition is half-maximal. Low readings indicate greater potency in that assay, high ones weaker potency in that assay. As for `CO[C@@H](Cc1ccccc1)[C@@H](C)/C=C(C)/C=C/[C@H](N)[C@H](C)C(=O)N[C@H](CCC(=O)N(C)CC(=O)N[C@H](C)C(=O)O)C(=O)O`, the IC50 was 270 µM.

Compound `CO[C@@H](Cc1ccccc1)[C@@H](C)/C=C(C)/C=C/[C@H](NC(C)=O)[C@H](C)C(=O)N[C@H](CCC(=O)N(C)CC(=O)N[C@H](C)C(=O)O)C(=O)O` displayed an IC50 of 135 µM.

The compound `COC(=O)[C@@H](CCC(=O)N(C)C)NC(=O)[C@@H](C)[C@H](/C=C/C(C)=C/[C@H](C)[C@H](Cc1ccccc1)OC)NC(C)=O` gave an IC50 above 100 µM.

Compound `C=C(C(=O)N[C@H](C)C(=O)N[C@@H](CC(C)C)C(=O)O)N(C)C(=O)CC[C@@H](NC(=O)[C@@H](C)[C@H](/C=C/C(C)=C/[C@H](C)[C@H](Cc1ccccc1)OC)NC(C)=O)C(=O)O` registered an IC50 of 16 µM.

The compound `CO[C@@H](Cc1ccccc1)[C@@H](C)/C=C(C)/C=C/[C@H](NC(C)=O)[C@H](C)C(=O)N[C@H](CCC(=O)N(C)CC(=O)N[C@H](C)C(=O)N[C@@H](CC(C)C)C(=O)O)C(=O)O` displayed an IC50 of 17 µM. The IC50 values of the last two compounds are within 1.5-fold of each other.

Compound `CO[C@@H](Cc1ccccc1)[C@@H](C)/C=C(C)/C=C/[C@H](NC(C)=O)[C@H](C)C(=O)N[C@H](CCC(=O)N(C)C)C(=O)O` gave an IC50 of 20 µM.
